SMILES strings stand for the structures. Bounds are passed on as bounds.

Assay [1] has as its target T1, OX1 (Homo sapiens, UniProt O43613).
T1 construct: expressed in transfected cells; host or cells: CHO (CHO-OX1)
T1 sequence (O43613 1-425): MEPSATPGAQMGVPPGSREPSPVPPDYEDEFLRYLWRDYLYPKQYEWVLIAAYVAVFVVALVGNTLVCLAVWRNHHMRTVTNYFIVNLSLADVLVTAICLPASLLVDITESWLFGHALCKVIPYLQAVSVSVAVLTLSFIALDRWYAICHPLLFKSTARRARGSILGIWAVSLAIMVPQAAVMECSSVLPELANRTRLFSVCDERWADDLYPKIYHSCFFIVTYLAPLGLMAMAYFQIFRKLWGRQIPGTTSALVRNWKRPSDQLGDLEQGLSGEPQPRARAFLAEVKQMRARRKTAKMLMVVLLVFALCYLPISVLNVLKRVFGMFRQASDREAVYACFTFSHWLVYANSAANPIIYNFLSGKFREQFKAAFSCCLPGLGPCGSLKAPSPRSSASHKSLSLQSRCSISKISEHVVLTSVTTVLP
Nature of the assay: Orexin receptor cell-based functional assay, [Ca2+]i by FLIPR, CHO-OX1 cells. To be noted: FLIPR calcium, antagonism of EC90 of [OX], read-out: OXI, IC50. The procedure:
(§1) Measurement of [Ca^2+]i using a FLIPR: CHO-OX1 or CHO-OX2 cells were seeded into black-walled clear-base 384-well plates (Corning, catalog #3712) at a density of 20,000 cells per well in F12-K medium supplemented with 10% FBS and then incubated in a 5% CO2, 37° C. incubator overnight to reach 90% confluency. The cells were incubated with equal volume of calcium6 loading buffer (Molecular Devices, Inc.) containing 2.5 mM probenecid at 37° C. for 2 h, followed by test compounds (dose-range 0.1 nM-10 μM) for another 30 min. The plates were then placed into a FLIPR (Molecular Devices, Inc.) to monitor fluorescence (λ excitation 488 nm, λ emission 540 nm) before and after the addition of EC90 of [OX].

The target of assay [2] is T2, OX2 (Homo sapiens, UniProt O43614).
T2 construct: expressed in transfected cells; host or cells: CHO (CHO-OX2)
T2 sequence (O43614 1-444): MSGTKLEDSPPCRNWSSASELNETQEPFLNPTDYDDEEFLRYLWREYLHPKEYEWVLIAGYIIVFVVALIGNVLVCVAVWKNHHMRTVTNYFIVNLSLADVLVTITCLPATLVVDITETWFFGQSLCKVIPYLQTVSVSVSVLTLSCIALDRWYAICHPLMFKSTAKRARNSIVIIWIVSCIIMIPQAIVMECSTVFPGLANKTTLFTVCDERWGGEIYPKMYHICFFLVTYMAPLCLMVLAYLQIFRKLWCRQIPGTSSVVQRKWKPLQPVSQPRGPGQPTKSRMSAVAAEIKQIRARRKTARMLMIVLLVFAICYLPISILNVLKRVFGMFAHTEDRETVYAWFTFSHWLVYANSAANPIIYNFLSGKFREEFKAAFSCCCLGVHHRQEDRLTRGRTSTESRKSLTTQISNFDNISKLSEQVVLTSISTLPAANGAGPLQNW
Briefly: Orexin receptor cell-based functional assay, [Ca2+]i by FLIPR, CHO-OX2 cells. To be noted: FLIPR calcium, antagonism of EC90 of [OX]. The protocol:
as §1, with “[OX]. Results for exemplary compounds of Formulae (I), (Ia), (Ib), (II), (IIa), (III), (IIIa), (IV), (IVa), (V), or (Va) are shown in Table 3.” for “[OX].”

On to `Cc1ccc(-c2ncccn2)c(C(=O)N2CC(F)(F)C[C@@H](C)[C@H]2CNc2ccc(C(F)(F)F)cn2)n1` [Compound 183, ((2S,3R)-5,5-difluoro-3-methyl-2-(((5-(trifluoromethyl)pyridin-2-yl)amino)methyl)piperidin-1-yl)(6-methyl-3-(pyrimidin-2-yl)pyridin-2-yl)methanone], for which the IC50 (as a rule, the midpoint of a concentration-inhibition curve) is 12 nM in assay [1] and over 5000 nM in assay [2].
`C[C@@H]1CC(F)(F)CN(C(=O)c2nn(C)cc2-c2ncc(Cl)cn2)[C@@H]1CNc1ncc(C(F)(F)F)cn1` [Compound 218, (4-(5-chloropyrimidin-2-yl)-1-methyl-1H-pyrazol-3-yl)((2S,3R)-5,5-difluoro-3-methyl-2-(((5-(trifluoromethyl)pyrimidin-2-yl)amino)methyl)piperidin-1-yl)methanone]: the figures for the IC50 in assay [1] and in assay [2] were 7 nM and over 5000 nM, respectively.
Taken in the same sequence, the figures for `Cc1c(-c2ncccn2)c(C(=O)N2CC(F)(F)C[C@@H](C)[C@H]2CNc2ncc(C(F)(F)F)cn2)nn1C` [Compound 233, ((2S,3R)-5,5-difluoro-3-methyl-2-(((5-(trifluoromethyl)pyrimidin-2-yl)amino)methyl)piperidin-1-yl)(1,5-dimethyl-4-(pyrimidin-2-yl)-1H-pyrazol-3-yl)methanone] were 1 nM and over 5000 nM.
Consider `C[C@@H]1CC(F)(F)CN(C(=O)c2nn(C)cc2-c2ncc(F)cn2)[C@@H]1COc1ncc(C(F)(F)F)cn1` [Compound 246], for which the results for the IC50 in assay [1] and in assay [2] were 4820 nM and over 5000 nM, respectively.
Take `Cc1ccc(-c2sc(C)nc2C(=O)N2CC(F)(F)C[C@@H](C)[C@H]2CNc2ncc(C(F)(F)F)cn2)nc1` [Compound 76]: the figures for the concentration for half-maximal inhibition (IC50) in assay [1] and in assay [2] were 10 nM and over 5000 nM, respectively.
As for `COc1ccc(-c2cn(C)nc2C(=O)N2CC(F)(F)C[C@@H](C)[C@H]2CNc2cnc(C(F)(F)F)cn2)nc1` [Compound 135], the results for the IC50 in assay [1] and in assay [2] were 19 nM and over 5000 nM, respectively.
Taken in the same sequence, the figures for `C[C@@H]1CC(F)(F)CN(C(=O)c2nn(C)cc2-c2cc(Cl)ccn2)[C@@H]1CNc1ncc(C(F)(F)F)cn1` [Compound 227, (4-(4-chloropyridin-2-yl)-1-methyl-1H-pyrazol-3-yl)((2S,3R)-5,5-difluoro-3-methyl-2-(((5-(trifluoromethyl)pyrimidin-2-yl)amino)methyl)piperidin-1-yl)methanone] were 14 nM and over 5000 nM.
Taken in the same sequence, the figures for `C[C@@H]1CC(F)(F)CN(C(=O)c2nn(C)cc2-c2cncnc2)[C@@H]1CNc1ncc(C(F)(F)F)cn1` [Compound 230, ((2S,3R)-5,5-difluoro-3-methyl-2-(((5-(trifluoromethyl)pyrimidin-2-yl)amino)methyl)piperidin-1-yl)(1-methyl-4-(pyrimidin-5-yl)-1H-pyrazol-3-yl)methanone] were 74 nM and over 5000 nM.
Turning to `COc1ccc(-n2nccn2)c(C(=O)N2CC(F)(F)C[C@@H](C)[C@H]2CNc2ccc(C(F)(F)F)cn2)n1` [Compound 202, ((2S,3R)-5,5-difluoro-3-methyl-2-(((5-(trifluoromethyl)pyridin-2-yl)amino)methyl)piperidin-1-yl)(6-methoxy-3-(2H-1,2,3-triazol-2-yl)pyridin-2-yl)methanone], the 50% inhibitory concentration (IC50) is 150 nM in assay [1] and over 5000 nM in assay [2].
On to `C[C@@H]1CC(F)(F)CN(C(=O)c2nn(C)cc2-c2ccc(F)cc2)[C@@H]1COc1ccc(C(F)(F)F)cn1` [Compound 205, ((2S,3R)-5,5-difluoro-3-methyl-2-(((5-(trifluoromethyl)pyridin-2-yl)oxy)methyl)piperidin-1-yl)(4-(4-fluorophenyl)-1-methyl-1H-pyrazol-3-yl)methanone], for which the results for the IC50 in assay [1] and in assay [2] were 52 nM and over 5000 nM, respectively.
As to `Cc1ccc(C#CC2CC2)c(C(=O)N2CC(F)(F)C[C@@H](C)[C@H]2CNc2ncc(C(F)(F)F)cn2)n1` [Compound 234, (3-(cyclopropylethynyl)-6-methylpyridin-2-yl)((2S,3R)-5,5-difluoro-3-methyl-2-(((5-(trifluoromethyl)pyrimidin-2-yl)amino)methyl)piperidin-1-yl)methanone], the concentration for half-maximal inhibition (IC50) in assay [1] was 29 nM; in assay [2], over 5000 nM.
The like results for `Cc1cnc(-c2cn(C)nc2C(=O)N2CC(F)(F)C[C@@H](C)[C@H]2CNc2ncc(C(F)(F)F)cn2)nc1` [Compound 219, ((2S,3R)-5,5-difluoro-3-methyl-2-(((5-(trifluoromethyl)pyrimidin-2-yl)amino)methyl)piperidin-1-yl)(1-methyl-4-(5-methylpyrimidin-2-yl)-1H-pyrazol-3-yl)methanone] were, in that order, 120 nM and over 5000 nM.
Taken in the same sequence, the figures for `Cc1ccc(-c2cn(C)nc2C(=O)N2CC(F)(F)C[C@@H](C)[C@H]2CNc2cnc(C(F)(F)F)cn2)nc1` [Compound 133] were 11 nM and over 5000 nM.
The like results for `Cc1nc(C(=O)N2CC(F)(F)C[C@@H](C)[C@H]2CNc2ncc(C(F)(F)F)cn2)c(-c2cccc(F)c2)s1` [Compound 67] were, in that order, 5 nM and 1110 nM.
`COc1cccc(-c2cn(C)nc2C(=O)N2CC(F)(F)C[C@@H](C)[C@H]2CNc2cnc(C(F)(F)F)cn2)n1` [Compound 136]: the IC50 in assay [1] is 40 nM; in assay [2], over 5000 nM.
Consider `Cc1cccc(-c2cn(C)nc2C(=O)N2CC(F)(F)C[C@@H](C)[C@H]2CNc2cnc(C(F)(F)F)cn2)n1` [Compound 132], for which the IC50 in assay [1] is 7 nM; in assay [2] it was over 5000 nM.
In the case of `Cc1ccc(-c2nnn(C)n2)c(C(=O)N2CC(F)(F)C[C@@H](C)[C@H]2CNc2ncc(C(F)(F)F)cn2)c1` [Compound 8], the concentration for half-maximal inhibition (IC50) in assay [1] is 8 nM; in assay [2], over 5000 nM.
The like results for `Cc1ccc(-c2sc(C)nc2C(=O)N2CC(F)(F)C[C@@H](C)[C@H]2CNc2cnc(C(F)(F)F)cn2)nc1` [Compound 148] were, in that order, 6 nM and over 5000 nM.
As to `CCc1cnc(NC[C@@H]2[C@H](C)CC(F)(F)CN2C(=O)c2nc(C)sc2-c2ccc(F)cc2)nc1` [Compound 239, ((2S,3R)-2-(((5-ethylpyrimidin-2-yl)amino)methyl)-5,5-difluoro-3-methylpiperidin-1-yl)(5-(4-fluorophenyl)-2-methylthiazol-4-yl)methanone], the results for the IC50 in assay [1] and in assay [2] were 29 nM and over 5000 nM, respectively.
On to `C[C@@H]1CC(F)(F)CN(C(=O)c2nn(C)nc2-c2ccc(F)cc2)[C@@H]1CNc1ncc(C(F)(F)F)cn1` [Compound 81], for which the concentration for half-maximal inhibition (IC50) is 102 nM in assay [1] and over 5000 nM in assay [2].
The like results for `Cc1nc(C(=O)N2CC(F)(F)C[C@@H](C)[C@H]2CNc2cnc(C(F)(F)F)cn2)c(-c2cccnc2)o1` [Compound 156] were, in that order, over 1000 nM and over 5000 nM.
Taken in the same sequence, the figures for `C[C@@H]1CC(F)(F)CN(C(=O)c2nn(C)cc2-c2ccccn2)[C@@H]1COc1ccc(C(F)(F)F)cn1` [Compound 220, ((2S,3R)-5,5-difluoro-3-methyl-2-(((5-(trifluoromethyl)pyridin-2-yl)oxy)methyl)piperidin-1-yl)(1-methyl-4-(pyridin-2-yl)-1H-pyrazol-3-yl)methanone] were 8 nM and over 5000 nM.
Taken in the same sequence, the figures for `Cc1nc(C(=O)N2CC(F)(F)C[C@@H](C)[C@H]2CNc2ncc(Cl)cn2)c(-c2ccc(F)cc2)s1` [Compound 69] were 9 nM and over 5000 nM.
On to `C[C@@H]1CC(F)(F)CN(C(=O)c2cn(C)nc2-c2ccccn2)[C@@H]1CNc1ncc(C(F)(F)F)cn1` [Compound 93], for which the 50% inhibitory concentration (IC50) in assay [1] is 156 nM; in assay [2], over 5000 nM.

The record behind these values is US12084437B2, “Halo-substituted piperidines as orexin receptor modulators” (AstraZeneca AB, priority 2016, dated 2024).
